Data as given in the supplement of paper PMC6045584.
± gives the standard deviation of the averaged measurements.

These test systems were tested with CN1CC[C@H](c2c(O)cc(O)c3c(=O)cc(-c4ccccc4Cl)oc23)[C@H](O)C1 [FLAVOPIRIDOL] (assay: surviving fraction relative to DMSO-only wells; higher = less growth inhibition). Details: 5 nM; exposure time: 5 days.
Procedure, shortened: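 Log-phase tumour cells were seeded at 250–500 per well in 384-well plates and, from 24 hours after seeding, exposed continuously for five days to inhibitors at 0.5, 1, 5, 10, 50, 100, 500 and 1000 nM. Surviving fraction is CellTiter-Glo luminescence normalised to the median of DMSO-only wells. Luminescence was measured after 10 minutes at room temperature, and only lines screened three times with replicate Pearson r >0.7 and median Z' >0.3 were kept.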

| Test System | surviving fraction |
| --- | --- |
| SCC36 HEADNECK | 1.14 ± 0.16 |
| OS25HAL BONE | 1.12 ± 0.052 |
| HCC1806 BREAST | 1.03 ± 0.08 |
| HU09 BONE | 1.22 ± 0.14 |
| SG43 HEADNECK | 0.885 ± 0.11 |
| U2OS BONE | 1.1 ± 0.028 |
| HOSMNG BONE | 1 ± 0.011 |
| CASKI CERVIX | 0.919 ± 0.055 |
| SUM44 BREAST | 1.22 ± 0.23 |
| MDAMB231 BREAST | 1.02 ± 0.042 |
| CAL51 BREAST | 1.02 ± 0.056 |
| MDAMB436 BREAST | 1.06 ± 0.14 |
| HSSYII SYNOVIAL | 1.01 ± 0.083 |
| RDES SOFT TISSUE | 1.39 ± 0.07 |
| MDAMB157 BREAST | 0.986 ± 0.073 |
| CHLA90 AUTONOMIC GANGLIA | 0.906 ± 0.083 |
| CADOES1 SOFT TISSUE | 0.843 ± 0.13 |
| SG31 HEADNECK | 0.964 ± 0.096 |
| SCC47 HEADNECK | 1.23 ± 0.093 |
| S68 BREAST | 0.765 ± 0.091 |
| SNU475 LIVER | 1.09 ± 0.015 |

| Test System | surviving fraction |
| --- | --- |
| 22RV1 PROSTATE | 0.953 ± 0.11 |
| SG32 HEADNECK | 1.07 ± 0.24 |
| SCC003 HEADNECK | 1.12 ± 0.055 |
| JURKAT HAEMATOPOIETIC AND LYMPHOID TISSUE | 1.05 ± 0.026 |
| HT1080 SOFT TISSUE | 1.03 ± 0.029 |
| CAL120 BREAST | 0.955 ± 0.058 |
| MCF7 BREAST | 0.979 ± 0.032 |
| MFM223 BREAST | 1.46 ± 0.61 |
| LNCAP PROSTATE | 0.849 ± 0.038 |
| PCI30 HEADNECK | 1.15 ± 0.031 |
| OSHN BONE | 1.114 ± 0.0095 |
| SG28 HEADNECK | 1.02 ± 0.081 |
| HOS BONE | 1.034 ± 0.01 |
| HUO3N1 BONE | 1.14 ± 0.033 |
| BT20 BREAST | 1.17 ± 0.1 |
| SJSA1 BONE | 1.71 ± 0.2 |
| JIMT1 BREAST | 1.05 ± 0.047 |
| HCC78 LUNG | 0.898 ± 0.11 |
| NY BONE | 1.05 ± 0.027 |
| NOS1 BONE | 1.22 ± 0.15 |

Same assay, conditions: 10 nM; exposure time: 5 days

| Test System | surviving fraction |
| --- | --- |
| SCC36 HEADNECK | 1.24 ± 0.15 |
| OS25HAL BONE | 1.06 ± 0.021 |
| HCC1806 BREAST | 1.06 ± 0.062 |
| HU09 BONE | 1.08 ± 0.082 |
| SG43 HEADNECK | 1.07 ± 0.044 |
| U2OS BONE | 1.09 ± 0.053 |
| HOSMNG BONE | 0.981 ± 0.024 |
| CASKI CERVIX | 0.888 ± 0.056 |
| SUM44 BREAST | 1.22 ± 0.27 |
| MDAMB231 BREAST | 0.995 ± 0.039 |
| CAL51 BREAST | 0.877 ± 0.092 |
| MDAMB436 BREAST | 0.941 ± 0.036 |
| HSSYII SYNOVIAL | 0.907 ± 0.037 |
| RDES SOFT TISSUE | 1.44 ± 0.059 |
| MDAMB157 BREAST | 0.927 ± 0.018 |
| CHLA90 AUTONOMIC GANGLIA | 0.878 ± 0.021 |
| CADOES1 SOFT TISSUE | 0.888 ± 0.082 |
| SG31 HEADNECK | 0.988 ± 0.053 |
| SCC47 HEADNECK | 1.15 ± 0.078 |
| S68 BREAST | 1.2 ± 0.31 |
| SNU475 LIVER | 1.07 ± 0.072 |

| Test System | surviving fraction |
| --- | --- |
| 22RV1 PROSTATE | 0.893 ± 0.2 |
| SG32 HEADNECK | 0.823 ± 0.14 |
| SCC003 HEADNECK | 0.987 ± 0.084 |
| JURKAT HAEMATOPOIETIC AND LYMPHOID TISSUE | 1.04 ± 0.042 |
| HT1080 SOFT TISSUE | 1.016 ± 0.0044 |
| CAL120 BREAST | 0.949 ± 0.03 |
| MCF7 BREAST | 0.865 ± 0.031 |
| MFM223 BREAST | 1.25 ± 0.4 |
| LNCAP PROSTATE | 0.84 ± 0.015 |
| PCI30 HEADNECK | 1.13 ± 0.029 |
| OSHN BONE | 1.08 ± 0.018 |
| SG28 HEADNECK | 1.04 ± 0.099 |
| HOS BONE | 1.04 ± 0.019 |
| HUO3N1 BONE | 1.12 ± 0.03 |
| BT20 BREAST | 1.013 ± 0.0035 |
| SJSA1 BONE | 0.209 ± 0.011 |
| JIMT1 BREAST | 1.02 ± 0.035 |
| HCC78 LUNG | 0.809 ± 0.25 |
| NY BONE | 1.01 ± 0.05 |
| NOS1 BONE | 1.26 ± 0.084 |
